Legend:
[1] = system: rabbit serum obtained by immunizing a rabbit with the SARS-CoV strain Frankfurt 1; type: binding; set-up: Binding of a rabbit serum to linear peptides / Binding of a rabbit serum to looped peptides / Rabbit serum linear peptides / Rabbit serum looped peptides / Binding of a rabbit serum to linear peptides of protein N of SARS-CoV Urbani (Rabbit serum linear peptides) / Binding of a rabbit serum to looped/cyclic peptides of protein N of SARS-CoV Urbani (Rabbit serum looped peptides): unit not given here
[2] = system: antibodies in sera from SARS patients (sera 1a, 1b, 2, 6, 37, 62, London, SARS-yellow, SARS-green); type: binding, human; set-up: Binding of serum 6 to linear peptides of protein X1 of SARS-CoV Urbani / Binding of serum 37 to linear peptides of protein X1 of SARS-CoV Urbani / Binding of serum 6 to looped/cyclic peptide (PEPSCAN-ELISA) / Binding of serum 37 to looped/cyclic peptide (PEPSCAN-ELISA) / Binding of serum 37 to looped/cyclic peptides of protein X1 of SARS-CoV Urbani / Binding of serum 6 to linear peptides of protein X2 / Binding of serum 37 to linear peptides of protein X2 / Binding of serum 37 to looped/cyclic peptides of protein X2 of SARS-CoV Urbani / Binding of serum 6 to linear peptides of protein M of SARS-CoV Urbani / Binding of serum 37 to linear peptides of protein M of SARS-CoV Urbani / Binding of serum 6 to looped/cyclic peptides of protein M of SARS-CoV Urbani / Binding of serum 37 to looped/cyclic peptides of protein M of SARS-CoV Urbani / Binding of serum 6 to linear peptides of protein X3 of SARS-CoV Urbani / Binding of serum 37 to linear peptides of protein X3 of SARS-CoV Urbani / Binding of serum 37 to looped/cyclic peptides of protein X3 of SARS-CoV Urbani / Binding of serum 6 to linear peptides of protein X4 of SARS-CoV Urbani / Binding of serum 37 to linear peptides of protein X4 of SARS-CoV Urbani / Binding of serum 37 to looped/cyclic peptides of protein X4 of SARS-CoV Urbani / Binding of serum 6 to linear peptides of protein X5 of SARS-CoV Urbani / Binding of serum 37 to linear peptides of protein X5 of SARS-CoV Urbani / Binding of serum 37 to looped/cyclic peptides of protein X5 of SARS-CoV Urbani / Binding of serum 6 to linear peptides of protein N of SARS-CoV Urbani / Binding of serum 37 to linear peptides of protein N of SARS-CoV Urbani / Binding of serum 6 to linear peptide (PEPSCAN-ELISA) / Binding of serum 1a to looped/cyclic peptides of protein N of SARS-CoV Urbani / Binding of serum 1b to looped/cyclic peptides of protein N of SARS-CoV Urbani / Binding of serum 2 to looped/cyclic peptides of protein N of SARS-CoV Urbani / Binding of serum 6 to looped/cyclic peptides of protein N of SARS-CoV Urbani / Binding of serum 37 to looped/cyclic peptides of protein N of SARS-CoV Urbani / Binding of serum 62 to looped/cyclic peptides of protein N of SARS-CoV Urbani / Binding of serum London to looped/cyclic peptides of protein N of SARS-CoV Urbani / Binding of serum SARS-green to looped/cyclic peptides of protein N of SARS-CoV Urbani: unit not given here
[3] = system: control sera (pooled serum of ten healthy LUMC hospital workers; commercial negative donor pooled serum from the Dutch bloodbank); type: binding, human; set-up: Binding of Control serum LUMC to linear peptides / Binding of Control serum Blood-bank to linear peptides / Binding of Control serum LUMC to looped peptides / Binding of Control Serum Blood-Bank to Looped peptides / Binding of Control serum LUMC to linear peptides of the protein M of SARS-CoV Urbani / Binding of Control serum Blood-bank to linear peptides of the protein M of SARS-CoV Urbani / Binding of Control serum LUMC to looped peptides of the protein M of SARS-CoV Urbani / Binding of Control Serum Blood-Bank to Looped peptides of the protein M of SARS-CoV Urbani: unit not given here

TYQLRARSVSPKLFI was tested, and the “Recognition of the peptide by the rabbit serum” value [1] was “recognized”, the “Binding of serum 1a to linear peptides of protein X4 of SARS-CoV Urbani” value [2] was 0.8 and the “Binding of serum 1a to looped/cyclic peptides of protein X4 of SARS-CoV Urbani” value [2] was 0.9. The “Binding of serum 1b to linear peptides of protein X4 of SARS-CoV Urbani” value [2] was 0.6, the “Binding of serum 1b to looped/cyclic peptides of protein X4 of SARS-CoV Urbani” value [2] was 0.7 and the “Binding of serum 2 to linear peptides of protein X4 of SARS-CoV Urbani” value [2] was 0.7. For the same sequence, the “Binding of serum 2 to looped/cyclic peptides of protein X4 of SARS-CoV Urbani” value [2] was 0.8, the “Binding of serum 6 to linear peptides of protein X4 of SARS-CoV Urbani” value [2] was 0.9 and the “Binding of serum 6 to looped/cyclic peptides of protein X4 of SARS-CoV Urbani” value [2] was 1.3. For the same sequence, the “Binding of serum 37 to linear peptides of protein X4 of SARS-CoV Urbani” value [2] was 0.8, the “Binding of serum 37 to looped/cyclic peptides of protein X4 of SARS-CoV Urbani” value [2] was 0.6 and the “Binding of serum 62 to linear peptides of protein X4 of SARS-CoV Urbani” value [2] was 0.9. The “Binding of serum 62 to looped/cyclic peptides of protein X4 of SARS-CoV Urbani” value [2] was 0.8, the “Binding of serum London to linear peptides of protein X4 of SARS-CoV Urbani” value [2] was 0.9 and the “Binding of serum London to looped/cyclic peptides of protein X4 of SARS-CoV Urbani” value [2] was 1.4. For the same sequence, the “Binding of serum SARS-green to linear peptides of protein X4 of SARS-CoV Urbani” value [2] was 0.7, the “Binding of serum SARS-green to looped/cyclic peptides of protein X4 of SARS-CoV Urbani” value [2] was 0.2 and the “Binding of serum SARS-yellow to linear peptides of protein X4 of SARS-CoV Urbani” value [2] was 0.6. For the same sequence, the “Binding of serum SARS-yellow to looped/cyclic peptides of protein X4 of SARS-CoV Urbani” value [2] was 0.9, the “Binding of Control Serum Blood-Bank to Looped peptides” value [3] was 0.9 and the “Binding of Control serum Blood-bank to linear peptides” value [3] was 1.0. For the same sequence, the “Binding of Control serum LUMC to linear peptides” value [3] was 0.7 and the “Binding of Control serum LUMC to looped peptides” value [3] was 0.9.
For ACFVLAAVYRINWVT, the “Rabbit serum linear peptides” value [1] was 0.4, the “Rabbit serum looped peptides” value [1] was 0.3 and the “Binding of serum 1a to linear peptides of protein M of SARS-CoV Urbani” value [2] was 0.7. The “Binding of serum 1a to looped/cyclic peptides of protein M of SARS-CoV Urbani” value [2] was 0.7, the “Binding of serum 1b to linear peptides of protein M of SARS-CoV Urbani” value [2] was 0.6 and the “Binding of serum 1b to looped/cyclic peptides of protein M of SARS-CoV Urbani” value [2] was 0.7. The “Binding of serum 2 to linear peptides of protein M of SARS-CoV Urbani” value [2] was 0.5, the “Binding of serum 2 to looped/cyclic peptides of protein M of SARS-CoV Urbani” value [2] was 0.5 and the “Binding of serum 6 to linear peptides of protein M of SARS-CoV Urbani” value [2] was 0.3. For the same sequence, the “Binding of serum 6 to looped/cyclic peptides of protein M of SARS-CoV Urbani” value [2] was 1.0, the “Binding of serum 37 to linear peptides of protein M of SARS-CoV Urbani” value [2] was 0.8 and the “Binding of serum 37 to looped/cyclic peptides of protein M of SARS-CoV Urbani” value [2] was 0.7. For the same sequence, the “Binding of serum 62 to linear peptides of protein M of SARS-CoV Urbani” value [2] was 0.9, the “Binding of serum 62 to looped/cyclic peptides of protein M of SARS-CoV Urbani” value [2] was 0.6 and the “Binding of serum London to linear peptides of protein M of SARS-CoV Urbani” value [2] was 0.3. The “Binding of serum London to looped/cyclic peptides of protein M of SARS-CoV Urbani” value [2] was 0.3, the “Binding of serum SARS-green to linear peptides of protein M of SARS-CoV Urbani” value [2] was 0.3 and the “Binding of serum SARS-green to looped/cyclic peptides of protein M of SARS-CoV Urbani” value [2] was 0.3. For the same sequence, the “Binding of serum SARS-yellow to linear peptides of protein M of SARS-CoV Urbani” value [2] was 0.0, the “Binding of serum SARS-yellow to looped/cyclic peptides of protein M of SARS-CoV Urbani” value [2] was 0.5 and the “Binding of Control Serum Blood-Bank to Looped peptides of the protein M of SARS-CoV Urbani” value [3] was 0.7. The “Binding of Control serum Blood-bank to linear peptides of the protein M of SARS-CoV Urbani” value [3] was 0.7, the “Binding of Control serum LUMC to linear peptides of the protein M of SARS-CoV Urbani” value [3] was 0.3 and the “Binding of Control serum LUMC to looped peptides of the protein M of SARS-CoV Urbani” value [3] was 0.7.
In the case of LKTHRMCKYTQSTAL, the “Binding of a rabbit serum to linear peptides” value [1] is reported as 0.4, the “Binding of a rabbit serum to looped peptides” value [1] is reported as 0.5 and the “Binding of serum 1a to linear peptides of protein X2” value [2] is reported as 0.8. The “Binding of serum 1a to looped/cyclic peptides of protein X2 of SARS-CoV Urbani” value [2] was 0.6, the “Binding of serum 1b to linear peptides of protein X2” value [2] was 0.6 and the “Binding of serum 1b to looped/cyclic peptides of protein X2 of SARS-CoV Urbani” value [2] was 0.6. For the same sequence, the “Binding of serum 2 to linear peptides of protein X2” value [2] was 0.5, the “Binding of serum 2 to looped/cyclic peptides of protein X2 of SARS-CoV Urbani” value [2] was 0.4 and the “Binding of serum 6 to linear peptides of protein X2” value [2] was 0.6. The “Binding of serum 6 to looped/cyclic peptides of protein X2 of SARS-CoV Urbani” value [2] was 0.5, the “Binding of serum 37 to linear peptides of protein X2” value [2] was 0.7 and the “Binding of serum 37 to looped/cyclic peptides of protein X2 of SARS-CoV Urbani” value [2] was 0.5. The “Binding of serum 62 to linear peptides of protein X2” value [2] was 0.7, the “Binding of serum 62 to looped/cyclic peptides of protein X2 of SARS-CoV Urbani” value [2] was 0.6 and the “Binding of serum London to linear peptides of protein X2” value [2] was 0.5. The “Binding of serum London to looped/cyclic peptides of protein X2 of SARS-CoV Urbani” value [2] was 0.2, the “Binding of serum SARS-green to linear peptides of protein X2” value [2] was 0.5 and the “Binding of serum SARS-green to looped/cyclic peptides of protein X2 of SARS-CoV Urbani” value [2] was 0.3. For the same sequence, the “Binding of serum SARS-yellow to linear peptides of protein X2” value [2] was 0.8, the “Binding of serum SARS-yellow to looped/cyclic peptides of protein X2 of SARS-CoV Urbani” value [2] was 0.6 and the “Binding of Control Serum Blood-Bank to Looped peptides” value [3] was 0.7. The “Binding of Control serum Blood-bank to linear peptides” value [3] was 0.7, the “Binding of Control serum LUMC to linear peptides” value [3] was 0.6 and the “Binding of Control serum LUMC to looped peptides” value [3] was 0.6.

Source: patent publication US20070128217A1 (priority 2003, published 2007)
